Positions of bridges follow the written chain, without caps; N, C: chain ends. Non-standard residues stand in square brackets, D forms with d. Residues, ends and D or L forms follow the SMILES beside them. Pen = CC(C)(S)[C@H](N)C(=O)O
Key:
Integrin alpha-5/beta-1 = Integrin alpha-5/beta-1 (Homo sapiens, UniProt P05556+P08648); experiment: Binding affinity to integrin alpha5beta1 (unknown origin) assessed as inhibition of integrin and fibronectin interaction; assay type: protein-complex assay
HT-1080 = experiment: Inhibition of cell adhesion in human HT-1080 cells; assay type: functional, cell-based
HBL-100 = experiment: Inhibition of cell adhesion in human HBL-100 cells; assay type: functional, cell-based
A-375 = experiment: Inhibition of cell adhesion in human A-375 cells; assay type: functional, cell-based

Sequence of Integrin alpha-5/beta-1 (P05556 21-798 limits assumed): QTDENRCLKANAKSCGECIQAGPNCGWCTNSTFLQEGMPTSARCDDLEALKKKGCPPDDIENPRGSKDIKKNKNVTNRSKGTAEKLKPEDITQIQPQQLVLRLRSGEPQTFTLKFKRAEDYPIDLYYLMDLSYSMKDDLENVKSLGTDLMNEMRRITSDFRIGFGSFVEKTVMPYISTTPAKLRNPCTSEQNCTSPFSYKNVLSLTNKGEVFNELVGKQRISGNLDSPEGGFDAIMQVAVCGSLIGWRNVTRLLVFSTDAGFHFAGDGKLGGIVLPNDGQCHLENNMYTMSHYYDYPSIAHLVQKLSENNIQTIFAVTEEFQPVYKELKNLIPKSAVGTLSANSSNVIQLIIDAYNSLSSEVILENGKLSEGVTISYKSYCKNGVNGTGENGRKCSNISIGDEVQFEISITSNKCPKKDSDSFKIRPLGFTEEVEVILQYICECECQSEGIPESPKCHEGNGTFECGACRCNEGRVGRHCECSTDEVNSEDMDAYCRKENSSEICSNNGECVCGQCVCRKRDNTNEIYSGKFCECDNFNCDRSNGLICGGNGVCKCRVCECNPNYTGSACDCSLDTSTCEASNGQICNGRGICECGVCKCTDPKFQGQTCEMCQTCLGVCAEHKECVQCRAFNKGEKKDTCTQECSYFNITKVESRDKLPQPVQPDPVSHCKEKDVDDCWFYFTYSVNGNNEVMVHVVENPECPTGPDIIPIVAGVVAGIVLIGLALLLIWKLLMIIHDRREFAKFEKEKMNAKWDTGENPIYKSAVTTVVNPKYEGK
Sequence of Integrin alpha-5/beta-1 (P08648 42-894 limits assumed): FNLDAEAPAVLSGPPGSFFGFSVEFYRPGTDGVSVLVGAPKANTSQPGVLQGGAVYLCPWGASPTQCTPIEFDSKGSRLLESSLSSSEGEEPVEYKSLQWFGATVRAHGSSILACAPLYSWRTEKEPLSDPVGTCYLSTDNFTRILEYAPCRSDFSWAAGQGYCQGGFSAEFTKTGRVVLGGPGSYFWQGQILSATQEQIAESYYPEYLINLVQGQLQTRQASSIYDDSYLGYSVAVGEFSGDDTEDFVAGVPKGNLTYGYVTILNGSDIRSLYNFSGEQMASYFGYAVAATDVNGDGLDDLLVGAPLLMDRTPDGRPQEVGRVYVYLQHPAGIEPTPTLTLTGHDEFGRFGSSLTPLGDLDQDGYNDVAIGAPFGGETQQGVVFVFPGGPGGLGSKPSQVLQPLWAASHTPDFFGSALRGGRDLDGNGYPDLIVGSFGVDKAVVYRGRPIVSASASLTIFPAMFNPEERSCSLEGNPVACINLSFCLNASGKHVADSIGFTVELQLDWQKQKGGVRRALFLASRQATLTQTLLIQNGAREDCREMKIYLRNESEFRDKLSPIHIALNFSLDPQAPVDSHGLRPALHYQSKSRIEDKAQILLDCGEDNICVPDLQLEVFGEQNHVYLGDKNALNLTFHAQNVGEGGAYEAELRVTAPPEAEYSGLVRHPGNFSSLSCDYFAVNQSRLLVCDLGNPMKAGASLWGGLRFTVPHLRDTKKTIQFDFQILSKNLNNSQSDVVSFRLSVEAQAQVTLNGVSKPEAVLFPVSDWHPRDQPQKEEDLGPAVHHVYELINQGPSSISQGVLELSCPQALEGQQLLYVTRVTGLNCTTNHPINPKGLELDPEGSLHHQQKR
Sequence of Integrin alpha-5/beta-1 (P08648 895-1049 limits assumed): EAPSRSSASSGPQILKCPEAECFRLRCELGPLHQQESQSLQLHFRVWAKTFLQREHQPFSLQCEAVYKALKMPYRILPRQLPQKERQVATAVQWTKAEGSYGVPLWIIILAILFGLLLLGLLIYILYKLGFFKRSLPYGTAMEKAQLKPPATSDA

IC50 (Integrin alpha-5/beta-1) [nM]	IC50 (HT-1080) [nM]	IC50 (HBL-100) [nM]	IC50 (A-375) [nM]	SMILES
1560				CC[C@H](C)[C@H](NC(=O)[C@@H](N)C(C)C)C(=O)N[C@@H](CC(C)C)C(=O)N[C@H](C(=O)N[C@@H](CC(C)C)C(=O)N[C@@H](Cc1ccccc1)C(=O)O)C(C)C (H-VILVLF-OH)
	100	100	100	CC(=O)N[C@H]1CSSC(C)(C)[C@@H](C(N)=O)NC(=O)[C@H](Cc2ccccc2)NC(=O)[C@H](CC(=O)O)NC(=O)CNC(=O)[C@H](CCCNC(=N)N)NC1=O (Ac-CRGDF[Pen]-NH2; disulfide 1-6)

Reference: ChEMBL document CHEMBL5226327, “Source and exploration of the peptides used to construct peptide-drug conjugates” (Eur J Med Chem, 2021)
